Columns and labels:
[1] = Dissolution profile of tablets; format: physicochemical
Excerpt: Assessment of the composition of the present invention formulated into tablets was made, as described in Example 1 to determine their dissolution profiles, according to methods widely known in the industry, in order to evaluate the release of drugs.

[2] = Long-term stability test; format: physicochemical
Protocol: The compositions of the present invention can be formulated into tablets which are packed in Aluminum-Aluminum blisters and subjected to stability studies according to ICH international guidelines (International Conference of Harmonization, Guideline for Industry, Stability Testing of New Drug Substances and Products. ICH Q1A (R2) February 2003).
Long-term stability studies were conducted on a batch from the composition of the present invention manufactured in accordance with that described in Example 1 but with the addition of coloring agent; these studies were conducted in selected conditions of temperature and humidity, which were 30° C. and 75% RH, and a temperature of 25° C. and 60% RH, showing that the pharmaceutical composition is stable according to the results exemplified in Table 3 up to 9 months, although the study was conducted under the regulatory guidelines for a longer period.

[3] = Determination of drugs content stability under extreme storage conditions; format: physicochemical
Protocol: The compositions from Example 1 were subjected to extreme storage conditions.
These conditions were maintained for a month, as follows: temperature 40° C. and 75% relative humidity (RH) and at temperature of 60° C. and 85% RH.
Then, the determination of the contents of each of the drugs was performed.

[4] = clinical; conditions: human
[5] = patients with type 2 diabetes mellitus and proteinuria; cited from earlier work
[6] = cited from earlier work
[7] = 0 months, 30° C./75% RH or 25° C./60% RH (not said which)

SMILES	Average of % dissolved ([1]; 10 minutes) [%]	Average of % dissolved ([1]; 20 minutes) [%]	Average of % dissolved ([1]; 30 minutes) [%]	Average of % dissolved ([1]; 40 minutes) [%]	Average of % dissolved ([1]; 50 minutes) [%]	Average of % dissolved ([1]; 60 minutes) [%]	Dissolution ([2]; 0 months) [%]	Content [2, 7] [%]	Content ([2]; 1 month) [%]	Dissolution ([2]; 1 month) [%]	Content ([2]; 3 months) [%]	Dissolution ([2]; 3 months) [%]	Content ([2]; 6 months) [%]	Dissolution ([2]; 6 months) [%]	Content ([2]; 9 months) [%]	Dissolution ([2]; 9 months) [%]	Drug content ([3]; 1 Month 40° C./75% RH) [%]	Drug content ([3]; 1 Month 60° C./85% RH) [%]	Drug content ([3]; Initial) [%]	concentration at 0 h ([4]; in vivo) [ng/mL]	also measured
CC(=O)Oc1ccccc1C(=O)O [Acetylsalicylic acid, acetylsalicylic acid]	12	34	56	73	84	88	88.75	98.70	101.00	78.38	98.54	83.57	98.67	87.60	95.14	81.66	96.45	96.05	94.63		
CCCCc1nc(Cl)c(CO)n1Cc1ccc(-c2ccccc2-c2nn[nH]n2)cc1 [Losartan potassium, losartan potassium]	60	100	102	102	103	104	103.01	100.32	99.24	95.28	98.50	96.38	99.85	92.77	95.33	91.66	96.31	96.64	95.88	0	concentration at 0.17 h ([4]; in vivo): 39.7 ng/mL; concentration at 0.33 h ([4]; in vivo): 137 ng/mL; concentration at 0.5 h ([4]; in vivo): 191 ng/mL; concentration at 0.75 h ([4]; in vivo): 176 ng/mL; concentration at 1 h ([4]; in vivo): 140 ng/mL; concentration at 2 h ([4]; in vivo): 113 ng/mL; concentration at 2.5 h ([4]; in vivo): 96.3 ng/mL; concentration at 3 h ([4]; in vivo): 81.5 ng/mL; concentration at 4 h ([4]; in vivo): 57.5 ng/mL; concentration at 6 h ([4]; in vivo): 38.7 ng/mL; concentration at 7 h ([4]; in vivo): 21.8 ng/mL; concentration at 8 h ([4]; in vivo): 12.4 ng/mL; concentration at 10 h ([4]; in vivo): 6.01 ng/mL; concentration at 12 h ([4]; in vivo): 3.06 ng/mL; Progression of renal disease [5]: delays the progression of renal disease
O=C(O)c1ccccc1O [Salicylic acid]																					concentration at 0 h ([4]; plasma, oral): 0 ng/mL; concentration at 0.17 h ([4]; plasma, oral): 1.09 ng/mL; concentration at 0.33 h ([4]; plasma, oral): 3.97 ng/mL; concentration at 0.5 h ([4]; plasma, oral): 8.78 ng/mL; concentration at 0.75 h ([4]; plasma, oral): 14.8 ng/mL; concentration at 1 h ([4]; plasma, oral): 21.1 ng/mL; concentration at 2 h ([4]; plasma, oral): 28.8 ng/mL; concentration at 2.5 h ([4]; plasma, oral): 36.5 ng/mL; concentration at 3 h ([4]; plasma, oral): 43.3 ng/mL; concentration at 4 h ([4]; plasma, oral): 49.2 ng/mL; concentration at 6 h ([4]; plasma, oral): 50.2 ng/mL; concentration at 7 h ([4]; plasma, oral): 45.4 ng/mL; concentration at 8 h ([4]; plasma, oral): 25.1 ng/mL; concentration at 10 h ([4]; plasma, oral): 12.5 ng/mL; concentration at 12 h ([4]; plasma, oral): 4.21 ng/mL; concentration at 24 h ([4]; plasma, oral): 1.16 ng/mL
CC[C@H](C)C(=O)O[C@H]1C[C@H](O)C=C2C=C[C@H](C)[C@H](CC[C@@H](O)C[C@@H](O)CC(=O)O)[C@H]21 [Pravastatin sodium, pravastatin sodium]	61	104	105	106	107	108	99.79	98.89	98.04	94.77	95.83	98.09	98.77	95.97	99.97	93.37	98.72	98.23	99.76	0	Incidence of type 2 diabetes mellitus, lower than in placebo group ([6]; patients administered pravastatin vs placebo): 30%; Reduction of incidence of cerebral thrombosis ([6]; patients): ≤ 20%; concentration at 0.17 h ([4]; in vivo): 2.8 ng/mL; concentration at 0.33 h ([4]; in vivo): 24.9 ng/mL; concentration at 0.5 h ([4]; in vivo): 72.6 ng/mL; concentration at 0.75 h ([4]; in vivo): 113 ng/mL; concentration at 1 h ([4]; in vivo): 110 ng/mL; concentration at 2 h ([4]; in vivo): 77 ng/mL; concentration at 2.5 h ([4]; in vivo): 58 ng/mL; concentration at 3 h ([4]; in vivo): 42.5 ng/mL; concentration at 4 h ([4]; in vivo): 25.8 ng/mL; concentration at 6 h ([4]; in vivo): 16.2 ng/mL; concentration at 7 h ([4]; in vivo): 9.73 ng/mL; concentration at 8 h ([4]; in vivo): 13.3 ng/mL; concentration at 10 h ([4]; in vivo): 6.53 ng/mL; concentration at 12 h ([4]; in vivo): 1.71 ng/mL; concentration at 24 h ([4]; in vivo): 1.27 ng/mL
